Calls of active or inactive are those of the source. The rule behind the calls is not given here.
Columns and labels:
[1] = test system: PC-12; test: Neuroprotective activity against H2O2-induced cell injury in rat PC-12 cells assessed as increase in cell survival at 10 uM preincubated with compound for 24 hrs followed by H2O2 addition and measured after 24 hrs by MTT assay; assay type: functional, cell-based; settings: time 48.0 hrs
[2] = Inhibition of NO production in LPS-induced mouse BV-2 cells incubated for 24 hrs by Griess reagent based microplate reader analysis; assay type: functional, cell-based; settings: BV-2, 24 h
[3] = test system: BV-2; test: Cytotoxicity against mouse BV-2 cells assessed as reduction in cell viability by MTT-based colorimetric method; assay type: toxicity
[4] = test system: BV-2; test: Anti-neuroinflammatory activity in LPS-stimulated mouse BV-2 cells assessed as reduction in ratio of phosphorylated NF-kappaB to NFkappaB at 10 uM by Western blot analysis; assay type: functional, cell-based
[5] = test system: BV-2; test: Anti-neuroinflammatory activity in mouse BV-2 cells assessed as reduction in LPS-induced iNOS expression at 10 uM by Western blot analysis; assay type: functional, cell-based
[6] = test system: BV-2; test: Anti-neuroinflammatory activity in mouse BV-2 cells assessed as reduction in LPS-induced COX-2 expression at 10 uM by Western blot analysis; assay type: functional, cell-based
[7] = test system: BV-2; test: Anti-neuroinflammatory activity in mouse BV-2 cells assessed as reduction in LPS-induced TLR-4 expression at 10 uM by Western blot analysis; assay type: functional, cell-based

Row | IC50 [2] | SMILES | Activity [1] | Activity [3] | other results
1 | – | C=C(C)[C@H]1CC[C@]2(C)O[C@H]2CC[C@@]2(C)O[C@@H]2C1 | Active | – | –
2 | 6.81 µM | C=C1CCC[C@H]2[C@@H]1[C@H](C(C)=O)C[C@H]2C(C)C | Active | Non-Toxic | –
3 | – | C=C1CC[C@H]2O[C@]2(C)CC[C@@H]2[C@@H]1CC2(C)C | Active | – | –
4 | 6.23 µM | C=C(C)[C@@H]1CC(=O)C2=CC(=O)C[C@@H](C)[C@]2(C)C1 | – | Non-Toxic | Activity [4]: Active; Activity [5]: Active; Activity [6]: Active; Activity [7]: Active
5 | 5.91 µM | C=C1CCC[C@H]2[C@@H]1[C@@H](C(C)=O)C[C@H]2C(C)C | Active | Non-Toxic | –
6 | 4.92 µM | C=C1CCC(=O)[C@]2(C)CC[C@@H](C(C)C)[C@H](O)[C@@H]12 | – | Non-Toxic | –
7 | – | C=C(C)[C@@H]1CC[C@@]2(C)[C@H](O)CC[C@@](C)(O)[C@@H]2C1 | Active | – | –
8 | – | C=C(CO[C@@H]1O[C@H](CO)[C@@H](O)[C@H](O)[C@H]1O)[C@@H]1CC[C@@]2(O)CCC[C@@H](C)[C@]2(C)C1 | Active | – | –
9 | – | C=C(C)[C@@H]1CCC2=C[C@H](OC)C[C@@H](C)[C@]2(C)C1 | Active | – | –
10 | – | CC1=CC[C@H](O)[C@@]2(C)CC[C@H](C(C)(C)O[C@@H]3O[C@H](CO)[C@@H](O)[C@H](O)[C@H]3O)C[C@@H]12 | Active | – | –

Row | SMILES | IC50 [2] | Activity [1] | Activity [3] | other results
11 | O=c1c(O)c(-c2ccc(O)c(O)c2)oc2cc(O)cc(O)c12 [QUERCETIN] | 6.5 µM | – | – | –

— ChEMBL document CHEMBL5226371, “Hyperhubeins A-I, Bioactive Sesquiterpenes with Diverse Skeletons from Hypericum hubeiense” (J Nat Prod, 2023)
